Data taken from US11905294B2, “Imidazo[1,5-a]pyrazine derivatives as PI3Kδ inhibitors” (BEIGENE, LTD., priority 2017, dated 2024).
Like-named read-outs stand apart in the source and are kept apart here.

Experiments:
Format in all cases: biochemical
[1] = target: PI3K (p110γ) (Homo sapiens, UniProt P48736); test: PI3Kγ assay (ADP-Glo Kinase Assay); details: recombinant enzyme; IC50 (nM) or max inhibition (%) at 0.5 μM
[2] = target: PI3K (p110α/p85α) (Homo sapiens, UniProt P42336); test: PI3Kα assay (ADP-Glo Kinase Assay); details: recombinant enzyme; IC50 (nM) or max inhibition (%) at 0.5 μM
[3] = target: PI3K (p110β/p85α) (Homo sapiens, UniProt P42338); test: PI3Kβ assay (ADP-Glo Kinase Assay)
[4] = target: PI3K (p110δ/p85α) (Homo sapiens, UniProt O00329); test: PI3Kδ assay (ADP-Glo Kinase Assay); details: recombinant enzyme; IC50 (nM) or max inhibition (%) at 0.5 μM
Outline: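 Recombinant p110δ/p85α with lipid substrate and serially diluted compound, 0.5 hr RT preincubation; ATP-started reaction ran 1 hr at RT. ADP formed read by ADP-Glo luminescence; IC50 from four-parameter logistic fit of residual activity.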

[5] = read-out: Enzyme activity IC50 PI3Kβ

PI3K (p110δ/p85α), sequence (O00329 whole entry): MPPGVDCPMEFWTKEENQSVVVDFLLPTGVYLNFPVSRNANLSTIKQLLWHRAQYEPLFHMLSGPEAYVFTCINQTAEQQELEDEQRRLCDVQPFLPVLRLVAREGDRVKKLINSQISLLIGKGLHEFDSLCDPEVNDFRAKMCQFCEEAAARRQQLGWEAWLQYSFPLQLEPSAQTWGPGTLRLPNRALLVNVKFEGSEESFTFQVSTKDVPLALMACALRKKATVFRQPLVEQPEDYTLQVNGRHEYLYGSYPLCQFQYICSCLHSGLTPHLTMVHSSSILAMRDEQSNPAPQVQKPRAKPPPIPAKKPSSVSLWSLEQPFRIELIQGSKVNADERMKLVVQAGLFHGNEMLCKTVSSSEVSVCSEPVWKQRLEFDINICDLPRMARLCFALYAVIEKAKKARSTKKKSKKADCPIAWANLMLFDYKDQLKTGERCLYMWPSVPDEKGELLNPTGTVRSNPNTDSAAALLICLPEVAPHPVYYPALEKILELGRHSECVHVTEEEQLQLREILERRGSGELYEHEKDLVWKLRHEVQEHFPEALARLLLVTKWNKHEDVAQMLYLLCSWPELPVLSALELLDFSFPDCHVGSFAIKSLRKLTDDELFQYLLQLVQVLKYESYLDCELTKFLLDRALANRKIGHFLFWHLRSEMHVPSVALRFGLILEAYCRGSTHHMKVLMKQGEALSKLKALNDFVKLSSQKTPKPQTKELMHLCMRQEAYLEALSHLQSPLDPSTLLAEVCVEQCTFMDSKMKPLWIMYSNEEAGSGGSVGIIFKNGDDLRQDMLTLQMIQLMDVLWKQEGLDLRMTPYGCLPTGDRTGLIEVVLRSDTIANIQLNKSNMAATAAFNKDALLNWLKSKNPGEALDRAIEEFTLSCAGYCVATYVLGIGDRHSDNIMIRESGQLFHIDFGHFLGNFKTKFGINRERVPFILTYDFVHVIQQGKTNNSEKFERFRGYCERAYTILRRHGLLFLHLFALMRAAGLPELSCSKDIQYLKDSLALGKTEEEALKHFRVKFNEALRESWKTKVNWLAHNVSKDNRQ
PI3K (p110δ/p85α), sequence (P27986 whole entry partner): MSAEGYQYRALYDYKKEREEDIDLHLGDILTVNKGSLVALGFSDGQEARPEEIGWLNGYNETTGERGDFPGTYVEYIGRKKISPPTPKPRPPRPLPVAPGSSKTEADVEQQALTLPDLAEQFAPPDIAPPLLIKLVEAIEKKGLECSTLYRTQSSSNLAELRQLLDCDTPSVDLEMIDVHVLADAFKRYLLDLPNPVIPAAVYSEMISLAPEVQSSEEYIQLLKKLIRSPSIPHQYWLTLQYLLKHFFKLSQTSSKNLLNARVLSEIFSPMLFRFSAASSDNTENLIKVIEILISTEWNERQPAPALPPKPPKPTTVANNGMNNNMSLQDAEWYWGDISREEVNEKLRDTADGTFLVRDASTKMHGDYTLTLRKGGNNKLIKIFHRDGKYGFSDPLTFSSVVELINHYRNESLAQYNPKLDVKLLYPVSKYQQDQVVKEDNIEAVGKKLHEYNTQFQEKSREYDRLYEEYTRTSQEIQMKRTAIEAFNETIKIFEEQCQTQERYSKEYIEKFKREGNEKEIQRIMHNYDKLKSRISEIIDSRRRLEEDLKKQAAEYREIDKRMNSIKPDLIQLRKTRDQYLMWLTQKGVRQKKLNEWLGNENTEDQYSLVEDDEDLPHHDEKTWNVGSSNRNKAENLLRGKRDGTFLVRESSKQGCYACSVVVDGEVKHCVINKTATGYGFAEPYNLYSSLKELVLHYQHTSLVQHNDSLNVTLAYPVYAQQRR
PI3K (p110β/p85α), sequence (P42338 whole entry): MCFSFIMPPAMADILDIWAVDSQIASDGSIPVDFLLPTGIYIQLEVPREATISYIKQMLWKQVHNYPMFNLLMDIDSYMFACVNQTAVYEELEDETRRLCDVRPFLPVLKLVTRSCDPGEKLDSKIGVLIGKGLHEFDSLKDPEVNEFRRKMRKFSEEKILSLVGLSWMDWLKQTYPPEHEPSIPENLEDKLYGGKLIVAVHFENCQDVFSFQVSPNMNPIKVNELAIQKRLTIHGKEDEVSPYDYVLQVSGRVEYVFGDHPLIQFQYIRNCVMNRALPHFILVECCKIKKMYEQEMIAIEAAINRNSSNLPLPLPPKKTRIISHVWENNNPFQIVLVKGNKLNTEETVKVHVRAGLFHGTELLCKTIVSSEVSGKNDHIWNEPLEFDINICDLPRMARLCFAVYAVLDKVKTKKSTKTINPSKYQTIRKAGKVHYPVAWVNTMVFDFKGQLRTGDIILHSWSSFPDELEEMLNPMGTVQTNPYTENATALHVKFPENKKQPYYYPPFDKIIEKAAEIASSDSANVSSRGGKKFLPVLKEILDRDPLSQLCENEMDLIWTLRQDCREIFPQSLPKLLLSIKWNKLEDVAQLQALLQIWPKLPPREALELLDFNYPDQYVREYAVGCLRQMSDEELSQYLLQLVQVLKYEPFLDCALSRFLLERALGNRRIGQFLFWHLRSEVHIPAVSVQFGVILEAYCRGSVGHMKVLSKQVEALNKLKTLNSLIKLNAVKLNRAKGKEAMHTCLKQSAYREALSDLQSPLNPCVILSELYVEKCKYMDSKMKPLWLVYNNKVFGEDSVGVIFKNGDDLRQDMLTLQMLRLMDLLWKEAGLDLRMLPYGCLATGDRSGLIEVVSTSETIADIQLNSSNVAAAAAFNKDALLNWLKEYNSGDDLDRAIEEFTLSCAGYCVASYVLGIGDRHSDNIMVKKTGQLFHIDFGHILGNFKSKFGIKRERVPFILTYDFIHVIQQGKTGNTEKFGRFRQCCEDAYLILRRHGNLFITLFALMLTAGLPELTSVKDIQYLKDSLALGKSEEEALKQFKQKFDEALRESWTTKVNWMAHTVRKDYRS
PI3K (p110β/p85α), sequence (P27986 whole entry partner): as the sequence (P27986 whole entry partner) above
PI3K (p110α/p85α), sequence (P42336 whole entry): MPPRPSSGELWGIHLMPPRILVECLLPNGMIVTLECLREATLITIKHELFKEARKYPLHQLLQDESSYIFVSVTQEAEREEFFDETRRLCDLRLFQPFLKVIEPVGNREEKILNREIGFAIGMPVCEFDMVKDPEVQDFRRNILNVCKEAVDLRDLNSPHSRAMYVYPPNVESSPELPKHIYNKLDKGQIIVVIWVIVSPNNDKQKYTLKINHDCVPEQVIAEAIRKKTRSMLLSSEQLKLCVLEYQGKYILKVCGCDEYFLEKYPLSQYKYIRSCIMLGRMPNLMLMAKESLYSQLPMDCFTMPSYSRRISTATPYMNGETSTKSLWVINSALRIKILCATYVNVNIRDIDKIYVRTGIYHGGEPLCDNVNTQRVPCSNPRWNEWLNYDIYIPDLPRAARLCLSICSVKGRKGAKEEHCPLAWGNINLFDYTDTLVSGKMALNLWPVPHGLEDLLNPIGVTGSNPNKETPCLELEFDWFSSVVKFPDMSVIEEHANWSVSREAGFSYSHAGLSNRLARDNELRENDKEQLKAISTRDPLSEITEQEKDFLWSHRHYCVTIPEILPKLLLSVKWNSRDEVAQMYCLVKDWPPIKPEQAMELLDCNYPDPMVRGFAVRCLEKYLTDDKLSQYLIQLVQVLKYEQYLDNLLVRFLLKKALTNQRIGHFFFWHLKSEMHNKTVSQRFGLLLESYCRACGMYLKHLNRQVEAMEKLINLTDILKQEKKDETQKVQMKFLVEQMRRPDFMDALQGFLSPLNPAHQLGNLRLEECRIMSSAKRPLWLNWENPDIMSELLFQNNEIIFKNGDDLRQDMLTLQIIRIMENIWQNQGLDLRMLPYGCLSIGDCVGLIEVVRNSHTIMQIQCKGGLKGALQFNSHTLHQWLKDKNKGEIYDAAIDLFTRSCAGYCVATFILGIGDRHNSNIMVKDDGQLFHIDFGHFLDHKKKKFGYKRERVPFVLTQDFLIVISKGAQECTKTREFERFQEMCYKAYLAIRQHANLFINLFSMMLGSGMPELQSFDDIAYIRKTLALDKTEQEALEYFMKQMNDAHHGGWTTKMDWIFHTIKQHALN
PI3K (p110α/p85α), sequence (P27986 whole entry partner): as the sequence (P27986 whole entry partner) above
PI3K (p110γ), sequence (P48736 whole entry): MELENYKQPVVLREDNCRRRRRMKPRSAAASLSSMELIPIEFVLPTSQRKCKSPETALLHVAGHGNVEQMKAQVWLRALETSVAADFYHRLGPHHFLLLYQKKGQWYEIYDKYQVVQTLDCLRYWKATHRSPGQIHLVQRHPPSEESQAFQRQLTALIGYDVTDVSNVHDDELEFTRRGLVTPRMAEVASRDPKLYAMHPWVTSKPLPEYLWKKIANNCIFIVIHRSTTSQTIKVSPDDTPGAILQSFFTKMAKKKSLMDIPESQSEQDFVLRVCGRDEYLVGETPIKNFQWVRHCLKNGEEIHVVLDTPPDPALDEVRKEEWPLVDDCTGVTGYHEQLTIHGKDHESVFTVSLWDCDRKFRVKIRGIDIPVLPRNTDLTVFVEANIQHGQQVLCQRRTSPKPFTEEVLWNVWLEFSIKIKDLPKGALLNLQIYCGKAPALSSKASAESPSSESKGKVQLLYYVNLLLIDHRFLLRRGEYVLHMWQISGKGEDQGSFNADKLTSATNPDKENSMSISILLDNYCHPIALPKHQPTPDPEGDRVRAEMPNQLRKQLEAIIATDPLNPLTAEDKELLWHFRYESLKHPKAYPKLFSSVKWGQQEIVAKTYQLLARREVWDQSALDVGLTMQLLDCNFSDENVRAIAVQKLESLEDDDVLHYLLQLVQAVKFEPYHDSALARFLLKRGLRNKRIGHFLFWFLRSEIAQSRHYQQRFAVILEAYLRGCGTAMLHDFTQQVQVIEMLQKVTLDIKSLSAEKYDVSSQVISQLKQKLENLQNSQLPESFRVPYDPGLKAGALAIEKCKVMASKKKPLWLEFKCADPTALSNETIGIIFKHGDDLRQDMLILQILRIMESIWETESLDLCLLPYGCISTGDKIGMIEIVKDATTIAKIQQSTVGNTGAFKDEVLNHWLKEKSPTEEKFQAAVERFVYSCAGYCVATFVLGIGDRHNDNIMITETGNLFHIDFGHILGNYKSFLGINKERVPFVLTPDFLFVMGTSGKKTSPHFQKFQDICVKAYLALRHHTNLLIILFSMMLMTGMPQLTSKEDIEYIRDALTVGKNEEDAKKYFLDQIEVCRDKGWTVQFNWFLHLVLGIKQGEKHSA

Row | Molecule | IC50 [1] [nM] | IC50 [2] [nM] | IC50 [3, 5] [nM] | IC50 [4] [nM] | IC50 ([3]; recombinant enzyme, 2 hrs kinase reaction, IC50 (nM) or max inhibition (%) at 0.5 μM) [nM]
1 | Cc1nc([C@@H](C)c2cc(Cl)c(F)c(C(=O)NCC3CCOCC3)c2OC(C)C)n2ccnc(N)c12 [Compound 51, (S)-3-(1-(8-amino-1-methylimidazo[1,5-a]pyrazin-3-yl)ethyl)-5-chloro-6-fluoro-2-isopropoxy-N-((tetrahydro-2H-pyran-4-yl)methyl)benzamide] | 4500 | 27000 | 6400 | 0.97 | –
2 | Cc1nc([C@@H](C)c2cc(Cl)c(F)c(C(=O)N3CC4CCC(C3)O4)c2OC(C)C)n2ccnc(N)c12 [Compound 52, (3-((S)-1-(8-amino-1-methylimidazo[1,5-a]pyrazin-3-yl)ethyl)-5-chloro-6-fluoro-2-isopropoxyphenyl)(8-oxa-3-azabicyclo[3.2.1]octan-3-yl)methanone] | 2500 | 10000 | 40000 | 1.4 | –
3 | Cc1nc([C@@H](C)c2cc(Cl)c(F)c(C(=O)N[C@@H]3CC[C@@H](O)C3)c2OC(C)C)n2ccnc(N)c12 [Compound 53, 3-((S)-1-(8-amino-1-methylimidazo[1,5-a]pyrazin-3-yl)ethyl)-5-chloro-6-fluoro-N-((1R,3R)-3-hydroxycyclopentyl)-2-isopropoxybenzamide] | 2400 | 14000 | 11000 | 0.68 | –
4 | Cc1nc([C@@H](C)c2cc(Cl)c(F)c(C(=O)NCC3(O)COC3)c2OC(C)C)n2ccnc(N)c12 [Compound 55, (S)-3-(1-(8-amino-1-methylimidazo[1,5-a]pyrazin-3-yl)ethyl)-5-chloro-6-fluoro-N-((3-hydroxyoxetan-3-yl)methyl)-2-isopropoxybenzamide] | 2200 | 13000 | 11000 | 1.8 | –
5 | Cc1nc([C@@H](C)c2cc(Cl)c(F)c(C(=O)NC3(CN4CCN(CC5CC5)CC4)CC3)c2OC(C)C)n2ccnc(N)c12 [Compound 56, (S)-3-(1-(8-amino-1-methylimidazo[1,5-a]pyrazin-3-yl)ethyl)-5-chloro-N-(1-((4-(cyclopropylmethyl)piperazin-1-yl)methyl)cyclopropyl)-6-fluoro-2-isopropoxybenzamide] | 4500 | 28000 | 44000 | 1.9 | –
6 | Cc1nc([C@@H](C)c2cc(Cl)c(F)c(C(=O)NC[C@H](C)O)c2OC(C)C)n2ccnc(N)c12 [Compound 57, 3-((S)-1-(8-amino-1-methylimidazo[1,5-a]pyrazin-3-yl)ethyl)-5-chloro-6-fluoro-N-((S)-2-hydroxypropyl)-2-isopropoxybenzamide] | 4900 | 18000 | 12000 | 1.1 | –
7 | Cc1nc([C@@H](C)c2cc(Cl)c(F)c(C(=O)N[C@@H]3CCC[C@H]3O)c2OC(C)C)n2ccnc(N)c12 [Compound 58, 3-((S)-1-(8-amino-1-methylimidazo[1,5-a]pyrazin-3-yl)ethyl)-5-chloro-6-fluoro-N-((1R,2R)-2-hydroxycyclopentyl)-2-isopropoxybenzamide] | 2800 | 14000 | 16000 | 2.2 | –
8 | Cc1nc([C@@H](C)c2cc(Cl)c(F)c(C(=O)N[C@@H](C)c3ccnc(C(F)(F)F)c3)c2OC(C)C)n2ccnc(N)c12 [Compound 59A, 3-((S)-1-(8-amino-1-methylimidazo[1,5-a]pyrazin-3-yl)ethyl)-5-chloro-6-fluoro-2-isopropoxy-N-((S)-1-(2-(trifluoromethyl)pyridin-4-yl)ethyl)benzamide] | 1200 | 8300 | 14000 | 2.1 | –
9 | Cc1nc([C@@H](C)c2cc(Cl)c(F)c(C(=O)N[C@H](C)c3ccnc(C(F)(F)F)c3)c2OC(C)C)n2ccnc(N)c12 [Compound 59B, 3((S)-1-(8-amino-1-methylimidazo[1,5-a]pyrazin-3-yl)ethyl)-5-chloro-6-fluoro-2-isopropoxy-N-((R)-1-(2-(trifluoromethyl)pyridin-4-yl)ethyl)benzamide] | 2800 | 14000 | 26000 | 1.5 | –
10 | Cc1nc([C@@H](C)c2cc(Cl)c(F)c(C(=O)N[C@H]3C[C@H](O)C3)c2OC(C)C)n2ccnc(N)c12 [Compound 61, 3-((S)-1-(8-amino-1-methylimidazo[1,5-a]pyrazin-3-yl)ethyl)-5-chloro-6-fluoro-N-((trans)-3-hydroxycyclobutyl)-2-isopropoxybenzamide] | 4500 | 21000 | 12000 | 1.4 | –
11 | Cc1nc([C@@H](C)c2cc(Cl)c(F)c(C(=O)N[C@H]3CC[C@@H](O)CC3)c2OC(C)C)n2ccnc(N)c12 [Compound 62, 3((S)-1-(8-amino-1-methylimidazo[1,5-a]pyrazin-3-yl)ethyl)-5-chloro-6-fluoro-N-((cis)-4-hydroxycyclohexyl)-2-isopropoxybenzamide] | 9000 | 17000 | 29000 | 1.4 | –
12 | Cc1nc([C@@H](C)c2cc(Cl)c(F)c(C(=O)N[C@H]3C[C@@H](O)C3)c2OC(C)C)n2ccnc(N)c12 [Compound 63, 3-((S)-1-(8-amino-1-methylimidazo[1,5-a]pyrazin-3-yl)ethyl)-5-chloro-6-fluoro-N-((cis)-3-hydroxycyclobutyl)-2-isopropoxybenzamide] | 4200 | 38000 | 7400 | 1.1 | –
13 | Cc1nc([C@@H](C)c2cc(Cl)c(F)c(C(=O)N3CCC4(CC3)COC4)c2OC(C)C)n2ccnc(N)c12 [Compound 64, (S)-(3-(1-(8-amino-1-methylimidazo[1,5-a]pyrazin-3-yl)ethyl)-5-chloro-6-fluoro-2-isopropoxyphenyl)(2-oxa-7-azaspiro[3.5]nonan-7-yl)methanone] | 14000 | > 50000 | > 50000 | 1.6 | –
14 | Cc1nc([C@@H](C)c2cc(Cl)c(F)c(C(=O)NCC3(O)CC3)c2OC(C)C)n2ccnc(N)c12 [Compound 66, (S)-3(1-(8-amino-1-methylimidazo[1,5-a]pyrazin-3-yl)ethyl)-5-chloro-6-fluoro-N-((1-hydroxycyclopropyl)methyl)-2-isopropoxybenzamide] | 3400 | 14000 | 12000 | 2.2 | –
15 | Cc1nc([C@@H](C)c2cc(Cl)c(F)c(C(=O)N3CC4(CCOC4)C3)c2OC(C)C)n2ccnc(N)c12 [Compound 68, (S)-(3-(1-(8-amino-1-methylimidazo[1,5-a]pyrazin-3-yl)ethyl)-5-chloro-6-fluoro-2-isopropoxyphenyl)(6-oxa-2-azaspiro[3.4]octan-2-yl)methanone] | 4600 | 40000 | 23000 | 1.7 | –
16 | CO[C@@H]1CCCN(C(=O)c2c(F)c(Cl)cc([C@H](C)c3nc(C)c4c(N)nccn34)c2OC(C)C)C1 [Compound 69, (3-((S)-1-(8-amino-1-methylimidazo[1,5-a]pyrazin-3-yl)ethyl)-5-chloro-6-fluoro-2-isopropoxyphenyl)((R)-3-methoxypiperidin-1-yl)methanone] | 5200 | > 50000 | > 50000 | 2 | –
17 | CO[C@H]1CCN(C(=O)c2c(F)c(Cl)cc([C@H](C)c3nc(C)c4c(N)nccn34)c2OC(C)C)C1 [Compound 70, (3-((S)-1-(8-amino-1-methylimidazo[1,5-a]pyrazin-3-yl)ethyl)-5-chloro-6-fluoro-2-isopropoxyphenyl)((S)-3-methoxypyrrolidin-1-yl)methanone] | 6700 | 41000 | > 50000 | 1.9 | –
18 | Cc1nc([C@@H](C)c2cc(Cl)c(F)c(C(=O)N[C@H]3CC[C@H](O)C3)c2OC(C)C)n2ccnc(N)c12 [Compound 71, 3-((S)-1-(8-amino-1-methylimidazo[1,5-a]pyrazin-3-yl)ethyl)-5-chloro-6-fluoro-N-((1S,3S)-3-hydroxycyclopentyl)-2-isopropoxybenzamide] | 3400 | 14000 | 13000 | 1.4 | –
19 | (S)-3-(1-(8-amino-1-methylimidazol[1,5-a]pyrazin-3-yl)ethyl)-5-chloro-6-fluoro-2-isopropoxy-N-(4-methoxyphenyl)benzamide [Compound 29] | 2100 | 11000 | – | 1.1 | 9900
